This note sets out measurements from ChEMBL document CHEMBL1201862, “PubChem BioAssay data set” (2004).

Structures are written as SMILES.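 Five compound concentrations were applied to cells in 96-well plates for 48 hours; endpoints were derived by simple linear interpolation of the resulting dose-response curve. GI50 = concentration required for 50% inhibition of growth.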 The source made the active and inactive calls. Cut-off read from the data, not from the text of the source: active = GI50 up to about 1.1 µM and inactive = higher. Some results are limits rather than exact numbers.

Among the test systems are SF-295; A498; RPMI-8226; Malme-3M; PC-3; SK-MEL-28; SF-268; HT-29; MDA-MB-435; HOP-62; ACHN; OVCAR-5; SK-MEL-5; TK-10; LOX IMVI; BT-549; T47D; 786-0; MOLT-4; K562.
What all share (test): NCI-60 cell line screen, 48 h

As to `O=C1c2ccccc2C(O)(O)C1(O)C1(O)C(=O)c2ccccc2C1(O)O` (stereo not drawn), the GI50 in the assay on SF-295 was 34.8 µM (inactive); in the assay on A498, > 100 µM (inactive); in the assay with RPMI-8226, 51.2 µM (inactive); with Malme-3M it was 22.1 µM (inactive); in the assay with PC-3, > 100 µM (inactive); with SK-MEL-28 it was > 100 µM (inactive). The GI50 is > 100 µM (inactive) with SF-268; > 100 µM (inactive) in the assay on HT-29; 16.6 µM (inactive) in the assay on MDA-MB-435; 23.4 µM (inactive) in the assay with HOP-62; 21.3 µM (inactive) in the assay on ACHN; 65.2 µM (inactive) with OVCAR-5. In addition, the GI50 is 20.1 µM (inactive) with SK-MEL-5; 23 µM (inactive) with TK-10; 23 µM (inactive) in the assay on LOX IMVI; 55.6 µM (inactive) in the assay with BT-549; 23.1 µM (inactive) in the assay with T47D; 38.9 µM (inactive) with 786-0.

On to `O=C(O)c1cc(O)nc(SCc2ccccc2)n1`, for which the GI50 in the assay on SF-295, in the assay on A498, in the assay with Malme-3M, in the assay on PC-3, with SK-MEL-28 and with SF-268 was > 100 µM (inactive) in each case. Moreover, the GI50 with MOLT-4, in the assay with HT-29, with MDA-MB-435, in the assay with HOP-62, in the assay with ACHN and with OVCAR-5 was > 100 µM (inactive) in each case. In addition, the GI50 with SK-MEL-5, in the assay with TK-10, in the assay with LOX IMVI, with BT-549, in the assay with T47D and in the assay with K562 was > 100 µM (inactive) throughout. For the same compound, the GI50 in the assay on 786-0 was > 100 µM (inactive).

`OC1COC(n2c3ccc(Br)cc3c3ccc4c5ccccc5[nH]c4c32)C(O)C1O` (stereo not drawn): the GI50 with SF-295 is 0.538 µM (active); in the assay on A498, 4.3 µM (inactive); with RPMI-8226 it was 3.52 µM (inactive); with Malme-3M, 3.88 µM (inactive); in the assay with PC-3, 2.21 µM (inactive); in the assay on SK-MEL-28 it was 1.13 µM (inactive). Also, the GI50 in the assay on SF-268 is 3.84 µM (inactive); in the assay on MOLT-4 it was 3.05 µM (inactive); in the assay with HT-29, 3.15 µM (inactive); in the assay on MDA-MB-435, 3.89 µM (inactive); with HOP-62, 3.64 µM (inactive); in the assay with ACHN it was 2.84 µM (inactive). The GI50 with OVCAR-5 is 2.92 µM (inactive); in the assay with SK-MEL-5, 2.26 µM (inactive); in the assay with TK-10, 4.28 µM (inactive); with LOX IMVI, 2.31 µM (inactive); in the assay on BT-549, 1.1 µM (active); in the assay with T47D, 5.21 µM (inactive). The GI50 was 2.29 µM (inactive) with K562 and 3.96 µM (inactive) in the assay with 786-0.

For `CCCCOC(=O)C(=O)C(CCC(=O)c1ccc(C)cc1)C(=O)C=C(C)C` (stereo not drawn), the GI50 in the assay on SF-295, in the assay with A498, with RPMI-8226, in the assay with Malme-3M, in the assay with PC-3 and with SK-MEL-28 was > 100 µM (inactive) throughout. Also, the GI50 in the assay with SF-268, with MOLT-4, in the assay with HT-29, in the assay on MDA-MB-435, with HOP-62 and in the assay with ACHN was > 100 µM (inactive) each time. Besides, the GI50 in the assay with OVCAR-5, in the assay with SK-MEL-5, in the assay on TK-10, in the assay on LOX IMVI, with BT-549 and with T47D was > 100 µM (inactive) in each case. For the same compound, the GI50 with K562 and in the assay with 786-0 was > 100 µM (inactive) in each case.

For `COc1ccc(CCNC(=O)CCCCCO)cc1OC`, the GI50 in the assay with SF-295, in the assay on A498, in the assay on RPMI-8226, with PC-3, in the assay on SK-MEL-28 and in the assay with SF-268 was > 100 µM (inactive) throughout. In addition, the GI50 in the assay on MOLT-4, with HT-29, in the assay on MDA-MB-435, with HOP-62, in the assay with ACHN and in the assay with OVCAR-5 was > 100 µM (inactive) throughout. The GI50 in the assay on SK-MEL-5, with TK-10, in the assay on BT-549, in the assay with T47D, in the assay on K562 and in the assay on 786-0 was > 100 µM (inactive) throughout.

For the compound `C/C(=N/NC(=O)c1ccncc1)c1ccc(NC(=O)C(=O)Nn2c(S)nc3ccccc3c2=O)cc1`, the GI50 with SF-295, with A498, with RPMI-8226, in the assay with Malme-3M, in the assay with PC-3 and in the assay on SK-MEL-28 was > 100 µM (inactive) each time. Further, the GI50 in the assay on SF-268, in the assay on MOLT-4, with HT-29, in the assay on MDA-MB-435, with HOP-62 and in the assay on ACHN was > 100 µM (inactive) each time. In addition, the GI50 in the assay with OVCAR-5, in the assay with SK-MEL-5, with TK-10, in the assay with LOX IMVI, in the assay on BT-549 and in the assay on T47D was > 100 µM (inactive) in each case. In addition, the GI50 in the assay on 786-0 was > 100 µM (inactive).

On to `C#CC(O)/C=C/CCCCCCC#CC/C=C\CC#CCCCCCC/C=C/C(O)C#C` (stereo not drawn), for which the GI50 in the assay on SF-295 is 13.9 µM (inactive); with A498, 3.21 µM (inactive); with PC-3, 11.6 µM (inactive); in the assay on SK-MEL-28 it was 1.77 µM (inactive); in the assay with SF-268, 2.96 µM (inactive); in the assay on MOLT-4, 0.111 µM (active). Further, the GI50 with HT-29 was 2.06 µM (inactive); in the assay on MDA-MB-435 it was 2.34 µM (inactive); in the assay with HOP-62 it was 2.1 µM (inactive); with ACHN, 3.9 µM (inactive); in the assay with OVCAR-5, 2.48 µM (inactive); with SK-MEL-5, 1.44 µM (inactive). Moreover, the GI50 is 2.99 µM (inactive) in the assay on TK-10; 0.0104 µM (active) in the assay on LOX IMVI; 2.86 µM (inactive) in the assay with BT-549; 1.4 µM (inactive) in the assay with T47D; 2.05 µM (inactive) with K562; 2.09 µM (inactive) with 786-0.

For the compound `O=C(/C=C/c1ccc(OCc2ccccc2)cc1)NCc1ccc(C(=O)NCCc2ccccc2)cc1`, the GI50 in the assay on SF-295, in the assay with A498, with Malme-3M, with PC-3, in the assay on SK-MEL-28 and in the assay on SF-268 was > 100 µM (inactive) each time. Besides, the GI50 in the assay with HT-29 is > 100 µM (inactive); with MDA-MB-435, > 100 µM (inactive); in the assay with HOP-62, 89.1 µM (inactive); with ACHN it was > 100 µM (inactive); in the assay with OVCAR-5, > 100 µM (inactive); with SK-MEL-5, > 100 µM (inactive). Also, the GI50 in the assay with TK-10, in the assay on LOX IMVI, in the assay with BT-549, with T47D and in the assay on 786-0 was > 100 µM (inactive) each time.

Consider `CC(=O)n1cc(OP(=O)(Oc2ccccc2)Oc2ccccc2)c2ccccc21`, for which the GI50 in the assay on SF-295 was 38.9 µM (inactive); in the assay on A498, 54 µM (inactive); with RPMI-8226 it was 19.2 µM (inactive); in the assay on Malme-3M, 36.4 µM (inactive); in the assay on PC-3, 10.3 µM (inactive); in the assay on SK-MEL-28, 29.3 µM (inactive). For the same compound, the GI50 with SF-268 is 19.7 µM (inactive); in the assay with MOLT-4, 16.9 µM (inactive); in the assay with HT-29, 36 µM (inactive); with MDA-MB-435, 17.9 µM (inactive); in the assay on SK-MEL-5, 19 µM (inactive); with TK-10 it was 50.6 µM (inactive). The GI50 is 23.2 µM (inactive) in the assay on LOX IMVI; 34.4 µM (inactive) in the assay on BT-549; 32.7 µM (inactive) in the assay on T47D; 23.2 µM (inactive) with K562; 32.1 µM (inactive) with 786-0.

Consider `CCc1nn(CN2CCN(C)CC2)c(=S)n1/N=C\c1ccc(-c2ccc([N+](=O)[O-])cc2)o1`, for which the GI50 with SF-295 was 40.7 µM (inactive); with A498 it was 26 µM (inactive); with RPMI-8226, 39.5 µM (inactive); with Malme-3M, 42 µM (inactive); with PC-3, 54.3 µM (inactive); with SF-268, 37.8 µM (inactive). In addition, the GI50 in the assay on MOLT-4 is 34.7 µM (inactive); with HT-29, > 100 µM (inactive); in the assay with MDA-MB-435, 66.1 µM (inactive); in the assay on HOP-62, 28.4 µM (inactive); in the assay with ACHN it was 36.9 µM (inactive); in the assay with OVCAR-5, > 100 µM (inactive). In addition, the GI50 in the assay on SK-MEL-5 is 40.5 µM (inactive); in the assay on TK-10, 28.5 µM (inactive); in the assay with LOX IMVI, 59 µM (inactive); in the assay with BT-549, 37 µM (inactive); in the assay on T47D, 19.9 µM (inactive); in the assay on K562, 40 µM (inactive). For the same compound, the GI50 with 786-0 was 29.9 µM (inactive).

For the compound `CCCCCCCCCCCCCCCC(=O)OCC(COP(=O)(O)OCCNC(=O)CCSSc1ccccn1)OC(=O)CCCCCCCCCCCCCCC` (stereo not drawn), the GI50 in the assay with SF-295, in the assay with A498, with RPMI-8226, with Malme-3M, with PC-3 and in the assay on SK-MEL-28 was > 100 µM (inactive) throughout. In addition, the GI50 in the assay on SF-268, with MOLT-4, with HT-29, in the assay with MDA-MB-435, in the assay with HOP-62 and with ACHN was > 100 µM (inactive) in each case. Besides, the GI50 with OVCAR-5, in the assay on SK-MEL-5, with BT-549, in the assay on T47D, with K562 and in the assay with 786-0 was > 100 µM (inactive) throughout.
